pEC50, pIC50: −log10 of the molar value. Where two headings read alike, the source gives them in different places.

For one test, the system named is NCI-H358 (K-Ras G12C). Nature of the test: CellTiter-Glo cell viability assay, NCI-H358. The following applies: NCI-H358, 5-day treatment; class symbols; read-out: Additional H358 Cell Viability assay data (K-Ras G12C, IC50). The format is cell-based, human. How it is done:
Note—The following protocol describes a procedure for monitoring cell viability of K-Ras mutant cancer cell lines in response to a compound of the invention. Other RAS isoforms may be employed, though the number of cells to be seeded will vary based on cell line used.
Test compounds (132.5 nL) were directly dispensed into the assay plates containing cells. […] On day 5, assay plates and their contents were equilibrated to room temperature for approximately 30 minutes. […] Luminescence was measured using the PerkinElmer Enspire. Data were normalized by the following: (Sample signal/Avg. DMSO)*100. The data were fit using a four-parameter logistic fit.

Test [1] relates to NCI-H358 cells (K-Ras G12C). Description: Potency assay: pERK in NCI-H358 cells. The format is cell-based, human. How it is done:
The purpose of this assay is to measure the ability of test compounds to inhibit K-Ras in cells. […] This procedure measures a decrease in cellular pERK in response to test compounds.
NCI-H358 cells were grown and maintained using media and procedures recommended by the ATCC. On the day prior to compound addition, cells were plated in 384-well cell culture plates (40 μl/well) and grown overnight in a 37° C., 5% CO2 incubator. Test compounds were prepared in 10, 3-fold dilutions in DMSO, with a high concentration of 10 mM. On the day of assay, 40 nL of test compound was added to each well of cell culture plate using an Echo550 liquid handler (LabCyte®). Concentrations of test compound were tested in duplicate. After compound addition, cells were incubated 4 hours at 37° C., 5% CO2. Following incubation, culture medium was removed and cells were washed once with phosphate buffered saline.
In some experiments, cellular pERK level was determined using the AlphaLISA SureFire Ultra p-ERK1/2 Assay Kit (PerkinElmer). Cells were lysed in 25 μL lysis buffer, with shaking at 600 RPM at room temperature. […] After a 2-hour incubation in the dark, 5 μL donor mix was added, plate was sealed, and incubated 2 hours at room temperature. Signal was read on an Envision plate reader (PerkinElmer) using standard AlphaLISA settings. Analysis of raw data was carried out in Excel (Microsoft) and Prism (GraphPad). Signal was plotted vs. the decadal logarithm of compound concentration, and IC50 was determined by fitting a 4-parameter sigmoidal concentration response model.
In other experiments, cellular pERK was determined by In-Cell Western. […] Fixed cells were washed 4 times for 5 minutes with TBS containing 0.1% Triton X-100 (TBST) and then blocked with 100 μL Odyssey blocking buffer (LI-COR) for 60 minutes at room temperature. […] Cells were washed 4 times for 5 minutes with TBST. Secondary antibody (IR-800CW rabbit, LI-COR, diluted 1:800) and DNA stain DRAQS (LI-COR, diluted 1:2000) were added and incubated 1-2 hours at room temperature. Cells were washed 4 times for 5 minutes with TBST. Plates were scanned on a Li-COR Odyssey CLx Imager. Analysis of raw data was carried out in Excel (Microsoft) and Prism (Graph Pad). Signal was plotted vs. the decadal logarithm of compound concentration, and IC50 was determined by fitting a 4-parameter sigmoidal concentration response model.

The next test has as its target KRAS G12D (Homo sapiens (Human), UniProt P01116+P62937, G12D). Description: Ras-Raf (BRAF RBD) disruption / FRET / MOA assay, KRAS G12D. The format is biochemical. The following applies: Ras-Raf disruption/FRET/MOA assay; class symbols; read-out: KRAS G12D FRET data IC50. How it is done:
(§1) The purpose of this biochemical assay is to measure the ability of test compounds to facilitate ternary complex formation between a nucleotide-loaded Ras isoform and cyclophilin A; the resulting ternary complex disrupts binding to a BRAF^RBD construct, inhibiting Ras signaling through a RAF effector.
(§2) Compound is present in plate wells as a 10-point 3-fold dilution series starting at a final concentration of 30 μM. After incubation at 25° C. for 3 hours, a mixture of Anti-His Eu-W1024 and anti-GST allophycocyanin is then added to assay sample wells at final concentrations of 10 nM and 50 nM, respectively, and the reaction incubated for an additional 1.5 hours. […] Compounds that facilitate disruption of a Ras:RAF complex are identified as those eliciting a decrease in the TR-FRET ratio relative to DMSO control wells.
(§3) This protocol may also be executed substituting other Ras proteins or nucleotides.
(§4) The purpose of this biochemical assay was to measure the ability of test compounds to facilitate ternary complex formation between a nucleotide-loaded K-Ras isoform and Cyclophilin A; the resulting ternary complex disrupts binding to a BRAF^RBD construct, inhibiting K-Ras signaling through a RAF effector. Data is reported as IC50 values.
(§5) Compound was present in plate wells as a 10-point 3-fold dilution series starting at a final concentration of 30 μM. After incubation at 25° C. for 3 hours, a mixture of Anti-His Eu-W1024 and anti-GST allophycocyanin was then added to assay sample wells at final concentrations of 10 nM and 50 nM, respectively, and the reaction incubated for an additional 1.5 hours. […] Compounds that facilitate disruption of a K-Ras:RAF complex were identified as those eliciting a decrease in the TR-FRET ratio relative to DMSO control wells.

The target of another test is KRAS G12S (Homo sapiens (Human), UniProt P01116+P62937, G12S). Description: Ras-Raf (BRAF RBD) disruption / FRET / MOA assay, KRAS G12S. The test is classed as biochemical. The following applies: Ras-Raf disruption/FRET/MOA assay; class symbols; read-out: KRAS G12S FRET data IC50. The procedure: as §1, §2, §3, §4, §5
KRAS G12S, sequence (P01116-2 other isoform, or with tags, fused parts or gaps G12S): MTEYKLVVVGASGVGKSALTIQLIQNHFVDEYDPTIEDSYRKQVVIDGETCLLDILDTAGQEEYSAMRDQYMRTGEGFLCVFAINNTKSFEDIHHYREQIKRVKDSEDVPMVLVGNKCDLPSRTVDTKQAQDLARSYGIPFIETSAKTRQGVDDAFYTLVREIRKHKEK
KRAS G12S, sequence (P62937 whole entry): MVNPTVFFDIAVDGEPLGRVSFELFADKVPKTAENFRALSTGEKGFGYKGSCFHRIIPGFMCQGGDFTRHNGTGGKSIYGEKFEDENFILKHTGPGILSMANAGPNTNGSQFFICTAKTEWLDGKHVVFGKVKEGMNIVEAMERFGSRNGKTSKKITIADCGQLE
Where [2] appears, read: H358 KRAS G12C, read-out: pERK EC50.
The mark [3] stands for this setting: Homo sapiens, NCI-H358, H358 KRAS G12C, read-out: pERK EC50.

KRAS G12D, sequence (P01116-2 other isoform, or with tags, fused parts or gaps G12D): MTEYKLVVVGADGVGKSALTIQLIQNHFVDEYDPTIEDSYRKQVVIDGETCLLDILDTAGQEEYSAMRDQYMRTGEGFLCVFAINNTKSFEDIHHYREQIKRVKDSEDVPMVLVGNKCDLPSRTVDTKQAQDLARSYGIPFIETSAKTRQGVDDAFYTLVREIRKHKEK
KRAS G12D, sequence (P62937 whole entry, canonical isoform): as the sequence (P62937 whole entry) above

`CC#CC(=O)N1CC[C@H](C(=O)N(C)[C@@H](C(=O)N[C@H]2Cc3cc(O)cc(c3)-c3ccc4c(c3)c(c(-c3cccnc3[C@H](C)OC)n4CC)CC(C)(C)COC(=O)[C@@H]3CCCN(N3)C2=O)C(C)C)C1` (atropisomer, axis not shown) [Example A198]: the pIC50 in the test on NCI-H358 (K-Ras G12C) is below 6.00.
On to `CC#CC(=O)N1CC[C@H](C(=O)N(C)[C@H](C(=O)N[C@H]2Cc3cc(O)cc(c3)-c3ccc4c(c3)c(c(-c3cccnc3[C@H](C)OC)n4CC)CC(C)(C)COC(=O)[C@@H]3CCCN(N3)C2=O)C(C)C)C1` (atropisomer, axis not shown; (M)) [Example A145, (2S)-2-{1-[(3S)-1-(but-2-ynoyl)pyrrolidin-3-yl]-N-methylformamido}-N-[(8S,14S,20M)-22-ethyl-4-hydroxy-21-{2-[(1S)-1-methoxyethyl]pyridin-3-yl}-18,18-dimethyl-9,15-dioxo-16-oxa-10,22,28-triazapentacyclo[18.5.2.1^2,^6.1^10,^14.0^23,^27]nonacosa-1(26),2,4,6(29),20,23(27),24-heptaen-8-yl]-3-methylbutanamide], for which the pEC50 in test [1] (setting [2]) was above 5.30.
For `C=CC(=O)N1CC[C@H](C(=O)N(C)[C@H](C(=O)N[C@H]2Cc3cc(O)cc(c3)-c3ccc4c(c3)c(c(-c3ccccc3CO)n4CC)CC(C)(C)COC(=O)[C@@H]3CCCN(N3)C2=O)C(C)C)C1` [Example A4], the pEC50 in test [1] (setting [3]) was above 5.30.
Take `C=CC(=O)N1CC[C@H](C(=O)N(C)[C@H](C(=O)N[C@H]2Cc3cc(O)cc(c3)-c3ccc4c(c3)c(c(-c3ccccc3CCOC)n4C(C)(C)C#N)CC(C)(C)COC(=O)[C@@H]3CCCN(N3)C2=O)C(C)C)C1` [Example A12]: the pEC50 in test [1] (setting [3]) is above 5.30.
The same measure, in the same setting: the figure for `CCn1c(-c2ccccc2CCOC)c2c3cc(ccc31)-c1cc(O)cc(c1)C[C@H](NC(=O)[C@H](C(C)C)N(C)C(=O)[C@H]1CCN(C(=O)/C=C/CN(C)C)C1)C(=O)N1CCC[C@H](N1)C(=O)OCC(C)(C)C2` [Example A15] is above 5.30; for `C=CC(=O)N1CC[C@H](C(=O)N(C)[C@H](C(=O)N[C@H]2Cc3cc(OC(=O)CCC(=O)O)cc(c3)-c3ccc4c(c3)c(c(-c3ccccc3CCOC)n4CC)CC(C)(C)COC(=O)[C@@H]3CCCN(N3)C2=O)C(C)C)C1` [Example A32] it is above 5.30.
For `C=CC(=O)N1CC[C@H](C(=O)N(C)[C@H](C(=O)N[C@H]2Cc3cc(O)cc(c3)-c3ccc4c(c3)c(c(-c3ccccc3CCOC)n4C(C)(C)C#N)CC(C)(C)COC(=O)[C@@H]3CCCN(N3)C2=O)C(C)C)C1` [Example A34], the pEC50 in test [1] (setting [2]) was above 5.30.
In the case of `C=CC(=O)N1CCN(C(=O)N(C)[C@H](C(=O)N[C@H]2Cc3cc(O)cc(c3)-c3ccc4c(c3)c(c(-c3ccccc3CN(C)C)n4CC)CC(C)(C)COC(=O)[C@@H]3CCCN(N3)C2=O)C(C)C)CC1` [Example A37], in test [1] (setting [3]), the negative-log EC50 (pEC50) is above 5.30.
For `C=CC(=O)N1CC[C@H](C(=O)N(C)[C@H](C(=O)N[C@H]2Cc3cc(O)cc(c3)-c3ccc4c(c3)c(c(-c3ccncc3CCOC)n4CC)CC(C)(C)COC(=O)[C@@H]3CCCN(N3)C2=O)C(C)C)C1` [Example A48], the pEC50 in test [1] (setting [3]) is above 5.30.
As to `C=CC(=O)N1CC[C@H](C(=O)N(C)[C@H](C(=O)N[C@H]2Cc3cc(O)cc(c3)-c3ccc4c(c3)c(c(-c3cccnc3)n4C(C)(C)C#N)CC(C)(C)COC(=O)[C@@H]3CCCN(N3)C2=O)C(C)C)C1` [Example A74], in test [1] (setting [2]), the pEC50 is above 5.30.
Still for that read-out and setting: the result for `C=CC(=O)N1CC[C@H](C(=O)N(C)[C@H](C(=O)N[C@H]2Cc3cc(O)cc(c3)-c3ccc4c(c3)c(c(-c3cnccc3[C@H](C)OC)n4CC)CC(C)(C)COC(=O)[C@@H]3CCCN(N3)C2=O)C(C)C)C1` [Example A76] reads above 5.30.
For the molecule `C=CC(=O)N1CC[C@H](C(=O)N(C)[C@H](C(=O)N[C@H]2Cc3cc(OC(=O)N(C)CC(=O)O)cc(c3)-c3ccc4c(c3)c(c(-c3ccccc3CCOC)n4CC)CC(C)(C)COC(=O)[C@@H]3CCCN(N3)C2=O)C(C)C)C1` [Example A78], the pEC50 in test [1] (Homo sapiens, NCI-H358, read-out: pERK EC50) is above 5.30.
Turning to `C=CC(=O)N1CC[C@H](C(=O)N(C)[C@H](C(=O)N[C@H]2Cc3cc(O)cc(c3)-c3ccc4c(c3)c(c(-c3cncc(CCN(C)C)c3)n4CC)CC(C)(C)COC(=O)[C@@H]3CCCN(N3)C2=O)C(C)C)C1` [Example A81], in test [1] (setting [3]), the pEC50 is above 5.30.
On the same count and under the same terms, the figure for `CCn1c(-c2cnccc2COC)c2c3cc(ccc31)-c1cc(O)cc(c1)C[C@H](NC(=O)[C@H](C(C)C)N(C)C(=O)[C@H]1CCN(C(=O)C#CCN(C)C)C1)C(=O)N1CCC[C@H](N1)C(=O)OCC(C)(C)C2` [Example A88] is above 5.30.
For the molecule `C=CC(=O)N1CC[C@H](C(=O)N(C)[C@H](C(=O)N[C@H]2Cc3cc(O)cc(c3)-c3ccc4c(c3)c(c(-c3cccnc3COC)n4CC#N)CC(C)(C)COC(=O)[C@@H]3CCCN(N3)C2=O)C(C)C)C1` [Example A093], the pIC50 was 5.00 to 6.00 at KRAS G12D and 6.00 to 7.00 at KRAS G12S.
For the molecule `C=CC(=O)N1CC[C@H](C(=O)N(C)[C@H](C(=O)N[C@H]2Cc3nc(cs3)-c3ccc4c(c3)c(c(-c3cccnc3COC)n4CC)CC(C)(C)COC(=O)[C@@H]3CCCN(N3)C2=O)C(C)C)C1` [Example A094], the pIC50 at KRAS G12D and at KRAS G12S was below 5.00 in each case.
With `CCn1c(-c2cccnc2COC)c2c3cc(ccc31)-c1cc(O)cc(c1)C[C@H](NC(=O)[C@H](C(C)C)N(C)C(=O)C1CN(C(=O)C#CCN(C)C)C1)C(=O)N1CCC[C@H](N1)C(=O)OCC(C)(C)C2` [Example A097], the pIC50 was 5.00 to 6.00 on KRAS G12D and 6.00 to 7.00 at KRAS G12S.
`C=CC(=O)N1CC[C@H](C(=O)N(C)[C@H](C(=O)N[C@H]2Cc3cc(O)cc(c3)-c3ccc4c(c3)c(c(-c3ccc(C5CCN(C)CC5)nc3)n4CC)CC(C)(C)COC(=O)[C@@H]3CCCN(N3)C2=O)C(C)C)C1` [Example A098]: the pIC50 on KRAS G12D was below 5.00; at KRAS G12S it was 5.00 to 6.00.
Consider `C=CC(=O)N1CC[C@H](C(=O)N(C)[C@H](C(=O)N[C@H]2Cc3cc(O)cc(c3)-c3ccc4c(c3)c(c(-c3cnn(C)c3)n4CC)CC(C)(C)COC(=O)[C@@H]3CCCN(N3)C2=O)C(C)C)C1` [Example A099], for which the pIC50 on KRAS G12D is below 5.00; at KRAS G12S it was 5.00 to 6.00.
With `C=CC(=O)N1CC[C@H](C(=O)N(C)[C@H](C(=O)N[C@H]2Cc3cc(O)cc(c3)-c3ccc4c(c3)c(c(-c3ccc(CN5CC[C@@H](O)C5)cc3)n4CC)CC(C)(C)COC(=O)[C@@H]3CCCN(N3)C2=O)C(C)C)C1` [Examples A001], the figures for the pIC50 on KRAS G12D and at KRAS G12S were below 5.00 and 5.00 to 6.00, respectively.

These data come from US11566007B2, “Ras inhibitors” (Revolution Medicines, Inc., priority 2019, dated 2023).
